Values quoted from earlier work, collected in patent publication US20060182828A1, “METHODS OF REDUCING LIPID PEROXIDATION AND ACHIEVING RELATED HEALTH BENEFITS BY THE ADMINISTRATION OF TOCOPHEROL AND SESAME LIGNANS” (priority 2005, published 2006).

What was measured:
[1] = test system: heart disease; settings: supplementation with 30 IU to 100 IU
[2] = test system: LDL
[3] = test system: mouse skin papillomas; settings: induced with 12-0-tetradecanoylphorbol 1 acetate
[4] = test system: peroxisomal palmitoyl Co-A oxidation; settings: in vivo
[5] = test system: sterol regulatory element binding protein-1 (SREBP-1) m RNA; settings: 0.4% sesamin diet group
[6] = rats
[7] = test system: LDL; settings: Cu-ascorbate induced
[8] = 32.4 then 64.8 mg, total of 8 weeks
[9] = hypercholesterolemic men, before

In the case of vitamin E, the “lowers the risk of heart disease” value [1] is listed as 41%.

For `Cc1c(C)c2c(c(C)c1O)CC[C@@](C)(CCC[C@H](C)CCC[C@H](C)CCCC(C)C)O2` [alpha-tocopherol], the “formation of 4-hydroxy-2-nonenal (4-HNE), of control values” (shortened to “formation of 4-hydroxy-2-nonenal (4-HNE)”) [2] is given as “absolutely no effect” and the “formation of malondialdehyde (MDA), of control values” (“formation of malondialdehyde (MDA)” below) [2] is given as “absolutely no effect”.

In the case of `CC(C)(Sc1cc(C(C)(C)C)c(O)c(C(C)(C)C)c1)Sc1cc(C(C)(C)C)c(O)c(C(C)(C)C)c1` [probucal], the “formation of 4-hydroxy-2-nonenal (4-HNE)” value [2] is listed as “absolutely no effect” and the “formation of malondialdehyde (MDA)” value [2] is listed as “absolutely no effect”.

In the case of `Oc1ccc2c(c1)OCO2` [sesamol], the “reduction of formation of mouse skin papillomas” value [3] is listed as 50%.

In the case of `c1cc2c(cc1[C@H]1OC[C@H]3[C@@H]1CO[C@@H]3c1ccc3c(c1)OCO3)OCO2` [sesamin], the “increase of peroxisomal palmitoyl Co-A oxidation rate” value [4] is listed as 1.6 fold, the “SREBP-1 m RNA level relative to rats fed a sesamin-free diet” value [5] is listed as “one-half” and the “LDL cholesterol, after” value [8] is listed as 156.4. For the same compound, the “apolipoprotein B, after” value [8] was 168.5, the “changes in HDL cholesterol” value [8] was “no changes” and the changes in triglycerides [8] was “no changes”. The “mean total cholesterol, after” value [8] was 248.3, the “LDL cholesterol, before” value [9] was 187.1 and the “apolipoprotein B, before” value [9] was 188.8. The “mean total cholesterol, before” value [9] was 272.0.

For `Cc1c(O)cc2c(c1C)O[C@](C)(CCC[C@H](C)CCC[C@H](C)CCCC(C)C)CC2` [gamma-tocopherol], the “gamma tocopherol level in serum” value ([6]; serum) is listed as 3 micromoles per liter and the “gamma tocopherol levels in tissues (liver, kidney, brain)” value ([6]; tissue) is listed as 3 nmol per gram.

In the case of `Oc1ccc(C=Cc2cc(O)cc(O)c2)cc1` [resveratrol], the “reduction of formation of mouse skin papillomas” value [3] is given as 60%.

In the case of `c1cc2c(cc1[C@H]1OC[C@H]3[C@@H]1CO[C@@H]3c1ccc3c(c1)OCO3)OCO2` [episesamin], the “increase of peroxisomal palmitoyl Co-A oxidation rate” value [4] is given as 5.1 fold.

In the case of `Oc1cc2c(cc1[C@H]1OC[C@H]3[C@@H]1CO[C@@H]3c1ccc3c(c1)OCO3)OCO2` [sesaminol], the “formation of 4-hydroxy-2-nonenal (4-HNE)” value [2] is listed as 17%, the “formation of malondialdehyde (MDA)” value [2] is listed as 13% and the “inhibited TBARS formation” value ([2]; 0.1 micromolar concentration) is listed as 82.8%. For the same compound, the “protection against TBARS formation” value ([2]; one micromolar concentration) was 100%, the IC50 ([2]; read-out: IC50, lipid peroxidation of LDL) was 36 ± 10 nM and the “lag time longer than tetrahydrocurcumin” value [7] was 567%. For the same compound, the “lag time of LDL oxidation” value [7] was 510 min.
